Where a SMILES comes first, the peptide text is derived from it.
Legend:
[1] = target: α-chymotrypsin (Bos taurus, UniProt P00766); details: 100 μM peptide in DPBS, peptide-to-enzyme mass ratio 100:1, time points 0, 1, 5, 15, 30, 60 min, stopped with 0.1% TFA, RP-HPLC read-out
Experimental: Peptides were prepared at a concentration of 100 μM in DPBS, and α-chymotrypsin was added to achieve a final peptide-to-enzyme mass ratio of 100:1. The digestion was carried out at time points of 0, 1, 5, 15, 30, and 60 min, after which 0.1% TFA was added to terminate the reaction. The resulting samples were analyzed by reversed-phase HPLC (water/acetonitrile with 0.1% TFA) to monitor peptide stability.

[2] = test system: FITC-labeled human IgG; assay: IgG capture test on peptide-functionalized glass slides, fluorescence imaging; assay type: binding; details: peptide immobilized via thiol-maleimide on PEG-modified epoxy glass slide; antibody 5 µg/mL in PBS, 25 °C, 3 h; ImageJ; n = 1
Experimental: Epoxy-functionalized microscope glass slides (Tekdon Incorporated, Myakka City, FL, USA) were mounted in eight-well chambers. For peptide immobilization, NH2-PEG5000-COOH linkers (Biopharma PEG, Watertown, MA, USA) were applied to each well at a concentration of 1 mg/mL in ddH2O and incubated for ~5 h. The slides were then rinsed three times with ddH2O. Carboxyl groups of NH2-PEG5000-COOH linkers were activated for 30 min using 4 µg/mL 1-ethyl-3-(3-dimethylaminopropyl) carbodiimide hydrochloride (EDC; Thermo Fisher Scientific, Waltham, MA, USA) and 6 µg/mL N-hydroxy succinimide (NHS; Thermo Fisher Scientific) in ddH2O. Upon activation, the surfaces were washed three times with 1× PBS (Gibco, Grand Island, NY, USA) and incubated for over 5 h with an excess of NH2-PEG1000-MAL linkers (1 mg/mL in 1× PBS; Biopharma PEG). […]
[…] (Abcam, Cambridge, UK) were used to evaluate the antibody-binding capacity of each functionalized surface. […] The amount of surface-captured antibody was quantified via fluorescence imaging. […] Fluorescence intensity was analyzed using Image J software (64-bit Java 8). […]
Figure 3 IgG capture assay using FITC-labeled human IgG to evaluate the Fc-binding capability of peptides. […] (C) Quantitative fluorescence intensity analysis performed using ImageJ software (64-bit Java 8). […]

Row | Compound | time within which most of the peptide signal disappeared on α-chymotrypsin treatment [1] [min] | IgG-binding capacity (fluorescence intensity of captured IgG), in words [2]
1 | CSCC[C@H](NC(=O)[C@H](CC(N)=O)NC(=O)[C@@H](N)Cc1ccccc1)C(=O)N[C@@H](CCC(N)=O)C(=O)N[C@@H](C)C(=O)N[C@@H](CCC(N)=O)C(=O)N[C@@H](CCCNC(=N)N)C(=O)N[C@@H](CCCNC(=N)N)C(=O)N[C@@H](Cc1ccccc1)C(=O)N[C@@H](Cc1ccc(O)cc1)C(=O)N[C@@H](CCC(=O)O)C(=O)N[C@@H](C)C(=O)N[C@@H](CC(C)C)C(=O)N[C@@H](Cc1c[nH]cn1)C(=O)N[C@@H](CS)C(N)=O [SpA h1] (H-FNMQAQRRFYEALHC-NH2) | ≤ 1 | –
2 | Protein A: Fc-binding protein of Staphylococcus aureus, positive control of the IgG capture test | – | strong signal intensity

Source: article PMC12729524, “Enhancement of Structural Stability and IgG Affinity of a Z34C-Derived α-Helical Peptide via Lactam Stapling” (Antibodies, 2025)
